The source of these data is publication PMC9841533, “Microtubule-Stabilizing 1,2,4-Triazolo[1,5-a]pyrimidines as Candidate Therapeutics for Neurodegenerative Disease: Matched Molecular Pair Analyses and Computational Studies Reveal New Structure–Activity Insights” (Journal of Medicinal Chemistry, 2022).

Molecules are shown by their SMILES. Where two headings read alike, the source gives them in different places. Bounds are passed on as bounds.

Data set [1] concerns acetylated α-tubulin (AcTub) levels in QBI293 cells. Further details: method as in PMID 26980057, PMID 33411523. The note with it: activity reported in previous studies; cited from earlier work.
For data set [2], the system named is total tubulin levels in HeLa cells. Further details: method as in earlier work. The note with it: 16 h incubation, ref 13 (Yang et al.); cited from earlier work.
Data set [3] relates to de-tyrosinated α-tubulin (GluTub) in brain of WT mice. Put plainly: Brain PD: Glu-tubulin in brain tissue after compound treatment. The data set is classed as in vivo, mouse. The following applies: WT CD-1 mice, 1 mg/kg i.p. once daily for two consecutive days. As for the experimental part: Finally, to evaluate target engagement in the CNS, PD studies were conducted to determine compound-dependent elevations in the stable MT marker, de-tyrosinated α-tubulin (GluTub), in brain homogenates from compound-treated WT mice.
All animal protocols were approved by the University of Pennsylvania Institutional Animal Care and Use Committee (IACUC). […] Compounds were diluted from 20 or 40 mM DMSO stock solutions into 30% Kolliphor EL (Sigma-Aldrich) phosphate-buffered saline, pH 7.4. After 4 h following the second injection, mice were euthanized and cortices and hippocampi were isolated from each brain and placed in 0.2 mL of ice-cold radioimmunoprecipitation assay (RIPA) buffer (50 mM Tris, 150 mM NaCl, 5 mM EDTA, 0.5% sodium deoxycholate, 1% NP-40, 0.1% sodium dodecyl sulfate (SDS), pH 8.0) containing protease inhibitor (PI) cocktail (Sigma-Aldrich), 1 mM phenylmethylsulfonyl fluoride (PMSF) (Sigma-Aldrich), and 3 μM trichostatin A (TSA) (Sigma-Aldrich). The brain samples were homogenized with a handheld battery-operated mixer and subsequently sonicated. After centrifugation at 100,000g for 30 min at 4 °C, supernatant samples were transferred to a new tube and the pellets were resuspended in 0.15 mL of RIPA buffer and again homogenized, sonicated, and centrifuged. The supernatant from the second centrifugation was pooled with that from the first. The combined supernatant samples were assessed for protein concentration using a BCA assay (Thermo Fisher Scientific), and equal protein amounts from each brain sample underwent separation by 10% sodium dodecyl sulfate polyacrylamide gel electrophoresis (SDS-PAGE) followed by transfer onto nitrocellulose membranes essentially as previously described.[11] […] Incubation with infrared dye-conjugated secondary antibodies and subsequent imaging and quantification of the blots on the Odyssey imaging system were as described.[11]

For data set [4], the system named is acetylated α-tubulin (AcTub) levels in QBI293 cells. Put plainly: QBI293 cell assay of MT stabilization: acetylated α-tubulin ELISA. It is filed as cell-based. The essentials: (§1)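 AcTub and α-Tub were quantified by ELISA in whole-cell extracts normalized by BCA protein and expressed relative to vehicle. AcTub changes were also scaled to a 100 nM reference stabilizer control.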
A general note: ELISA stands for enzyme-linked immunosorbent assay.

A short description of data set [5]: Brain-to-plasma ratio in mice. The data set is classed as in vivo. The note with it: mouse, ip, 1 h post-administration, i.p. 1.5 mg/kg, read-out: brain-to-plasma ratio (B/P).
The nature of data set [6]: Plasma pharmacokinetics in CD-1 mice. The note with it: male, mouse. The data set is classed as in vivo, mouse. As for the experimental part: Studies to determine the pharmacokinetic properties of compounds 53 and 60 were conducted at Touchstone Biosciences (Plymouth Meeting, PA). For the determination of plasma pharmacokinetics, three male CD-1 mice (2–3 months of age) were injected i.v. (tail vein) with test compound at a dose of 5 mg/kg in a solution of 10% DMSO, 40% polyethylene glycol, and 50% water, and another three male CD-1 mice received oral gavage dosing of 60 formulated as above at a dose of 20 mg/kg. Blood samples were collected from the saphenous or submandibular veins at multiple time points after dosing and collected in Greiner MiniCollect K2EDTA tubes. Compound levels in plasma were determined by LC-MS/MS, using protocols similar to those previously described.[16],[22]

Data set [7] deals with total α-tubulin (α-Tub) levels in QBI293 cells. Put plainly: QBI293 cell assay: total α-tubulin ELISA. It is filed as cell-based. The essentials:
as §1

By Vd is commonly meant a proportionality between amount in the body and measured concentration, not a real space. Low readings indicate confinement near the circulation, high ones extensive tissue distribution. One may read the clearance as the rate of elimination divided by the concentration. Read a high clearance as efficient removal. One may read the bioavailability as the share of a dose that reaches the circulation, judged against a reference dose that is usually intravenous.

Regarding `C[C@H](Nc1c(-c2c(F)cc(F)cc2F)c(Cl)nc2ncnn12)C(F)(F)F` [Compound 2], the “Class (cellular phenotype)” value in data set [1] is “I”. In addition, the total tubulin levels result in data set [2] was “reduction in total tubulin levels”.

Turning to `C[C@@H](Nc1c(-c2c(F)cc(C#CCCN(C)C)cc2F)c(Cl)nc2ncnn12)C(C)(C)C` [Compound 60, (R)-5-Chloro-6-(4-(4-(dimethylamino)but-1-yn-1-yl)-2,6-difluorophenyl)-N-(3,3-dimethylbutan-2-yl)-[1,2,4]triazolo[1,5-a]pyrimidin-7-amine], the “brain GluTub (GluTub-to-total α-Tub ratio) relative to vehicle-treated mice” value in data set [3] was “significant elevations in brain GluTub”. In data set [4] (1 uM compound, normalized), the “AcTub (1 uM - normalized)” value turned out to be 1.75. Also, the “AcTub (10 uM - normalized)” value in data set [4] (10 uM compound, normalized) worked out at 1.28. For the same compound, the fold induction at 1 µM in data set [4] (4 h, 1 uM compound, read-out: AcTub (1uM)) was 9.5; in data set [4] (4 h incubation, 1 μM, read-out: AcTub 1 μM, fold-change compared to vehicle (DMSO)-treated cells), 9.5 ± 0.34; in data set [7] (4 h, 1 uM compound, read-out: AlfaTub (1uM)) it was 0.94; in data set [7] (4 h incubation, 1 μM, read-out: α-Tub 1 μM, fold-change compared to vehicle (DMSO)-treated cells), 0.94 ± 0.01. The fold induction at 10 µM came out at 6.94 in data set [4] (4 h, 10 uM compound, read-out: AcTub (10 uM)); 6.94 ± 0.22 in data set [4] (4 h incubation, 10 μM, read-out: AcTub 10 μM, fold-change compared to vehicle (DMSO)-treated cells); 0.98 in data set [7] (4 h, 10 uM compound, read-out: AlfaTub (10 uM)); 0.98 ± 0.01 in data set [7] (4 h incubation, 10 μM, read-out: α-Tub 10 μM, fold-change compared to vehicle (DMSO)-treated cells). In addition, in data set [4] (4 h incubation, 1 μM), the “AcTub 1 μM, fold-change compared to positive control compound 5 (100 nM) (in parentheses)” value amounted to 1.75 fold-change. Also, the “AcTub 10 μM, fold-change compared to positive control compound 5 (100 nM) (in parentheses)” value in data set [4] (4 h incubation, 10 μM) worked out at 1.28 fold-change. Also, the Kp at 1 h in data set [5] is ~0.5. In data set [6] (iv, i.v. 5 mg/kg), this compound yielded a distribution volume (Vd) at 24 h of 4.8 L/kg. The compound further had a clearance at 24 h in data set [6] (iv, i.v. 5 mg/kg) of 8.2 mL/min/kg. Further, the half-life in data set [6] (iv, i.v. 5 mg/kg, read-out: half-life (T1/2)) was > 6 h. The half-life at 24 h in data set [6] (iv, i.v. 5 mg/kg, read-out: half-life (T1/2) (converted)) is 6.8 h. For the same compound, the bioavailability in data set [6] (oral, 5 mg/kg i.v. and 20 mg/kg p.o., read-out: oral bioavailability (F)) was > 50%. Besides, the bioavailability at 24 h in data set [6] (po, 5 mg/kg i.v. and 20 mg/kg p.o., read-out: oral bioavailability (F)) was 56%.
